From patent US20080045582A1, “ENA-78 Gene Polymorphisms and Protein Concentrations as Diagnostic and Prognostic Tools” (priority 2006, published 2008)

Key:
ENA-78 [1] = test: IL-1beta-stimulated ENA-78 production from HUVECs, cytometric immunofluorescence; format: cell-based, human; conditions: for effect of co-treatment on the effect of AT on IL-1beta-stimulated ENA-78 production: IL-1beta and AT 10 uM, mevalonate 250 μM, FPP 5 μM, GGPP 5 μM; for stimulation of ENA-78 production by IL-1beta, times that of basal production: FIG. 15
Method: Human umbilical vein endothelial cells (HUVECs) (Clonetics Cell Systems; Cambrex Bio Science Walkersville, Inc., Walkersville, USA) were cultured as previously described. Briefly, HUVECs between passes three and four were seeded at a density of 2.5×10^4 cells per cm^2 and cultured to 80% confluence with endothelial cell growth-supplemented medium (EGM-2-endothelial cell medium-2; Cambrex Bio Science Walkersville, Inc.). Once confluent, media was changed to serum free endothelial basal media (EBM-2-endothelial cell medium-2; Cambrex Bio Science Walkersville, Inc.) for 24 hours prior to treatment, in which EBM-2 media supplemented to a 2% FBS concentration was used. Treatments consisted of atorvastatin calcium (AT; LKT Laboratories Inc., St. […] All were dissolved in molecular grade water. All final DMSO concentrations were less then 0.1%. […] In experiments investigating the impact of AT on IL-1beta-stimulated ENA-78 production, HUVECs were pre-treated with AT followed by IL-1beta stimulation two hours later. […] In a separate set of experiments, cells were cultured with IL-1beta and AT in the presence or absence of mevalonate, FPP, and GGPP to determine whether AT inhibition of ENA-78 production was dependent on HMG-CoA reductase inhibition and subsequent downstream pathways. Cell culture supernates for all experiments were stored at -20° C. until analysis, which was performed within seven days. ENA-78 concentrations were measured and normalized to total protein content in cell culture supernates using cytometric immunofluorescence as previously described. Ribonucleic acid (RNA) was isolated using a commercial kit (RNeasy mini kit, Qiagen Inc., Valencia, USA). Complementary deoxyribonucleic acid (cDNA) conversion was performed by high capacity cDNA reverse transcription (Applied Biosystems, Foster City, USA) per protocol using roughly 2 μg of total RNA. RNA quality was assessed by absorbance (Nanodrop, Nanodrop Technologies, Wilmington, USA). Real-time reverse-transcription PCR (RT-PCR) was done using primer and probe sets for CXCL5 normalized to a housekeeping gene, glyceraldehyde-3-phosphate dehydrogenase (GAPDH; Taqman Gene Expression Assays, Applied Biosystems Inc.). […] PCR for both CXCL5 and GAPDH was performed at the same time using the following conditions: 95° C. for 2 minutes; 35 cycles of 95° C. for 30 seconds, 59° C. for 30 seconds, and 72° C. for 30 seconds; followed by 7 minutes of elongation at 72° C. Statistical differences in normalized protein concentrations and gene expression levels were determined by one way ANOVA and post-hoc Tukey analysis. […] An independent t-test was used to compare treatment differences at the same time points in the dose range analysis. […] Statistical analyses were performed with SPSS software, version 11.5 (SPSS Inc., Chicago, USA).

CXCL5 = CXCL5 gene expression in HUVECs, real-time RT-PCR normalized to GAPDH; format: cell-based, human; conditions: IL-1beta, 24 hours, FIG. 17
Method: Human umbilical vein endothelial cells (HUVECs) (Clonetics Cell Systems; Cambrex Bio Science Walkersville, Inc., Walkersville, USA) were cultured as previously described. Briefly, HUVECs between passes three and four were seeded at a density of 2.5×10^4 cells per cm^2 and cultured to 80% confluence with endothelial cell growth-supplemented medium (EGM-2-endothelial cell medium-2; Cambrex Bio Science Walkersville, Inc.). Once confluent, media was changed to serum free endothelial basal media (EBM-2-endothelial cell medium-2; Cambrex Bio Science Walkersville, Inc.) for 24 hours prior to treatment, in which EBM-2 media supplemented to a 2% FBS concentration was used. Treatments consisted of atorvastatin calcium (AT; LKT Laboratories Inc., St. […] All were dissolved in molecular grade water. All final DMSO concentrations were less then 0.1%. […] In experiments investigating the impact of AT on IL-1beta-stimulated ENA-78 production, HUVECs were pre-treated with AT followed by IL-1beta stimulation two hours later. […] In a separate set of experiments, cells were cultured with IL-1beta and AT in the presence or absence of mevalonate, FPP, and GGPP to determine whether AT inhibition of ENA-78 production was dependent on HMG-CoA reductase inhibition and subsequent downstream pathways. Cell culture supernates for all experiments were stored at -20° C. until analysis, which was performed within seven days. ENA-78 concentrations were measured and normalized to total protein content in cell culture supernates using cytometric immunofluorescence as previously described. Ribonucleic acid (RNA) was isolated using a commercial kit (RNeasy mini kit, Qiagen Inc., Valencia, USA). […] RNA quality was assessed by absorbance (Nanodrop, Nanodrop Technologies, Wilmington, USA). […] Statistical differences in normalized protein concentrations and gene expression levels were determined by one way ANOVA and post-hoc Tukey analysis. […]

ENA-78 [2] = test: ENA-78 production by non-stimulated human umbilical vein endothelial cells, multiplex protein measurement; format: cell-based
Method: (§1) Human umbilical vein endothelial cells were obtained (Clonetics Cell Systems; Cambrex Bio Science Walkersville, Inc., Walkersville, Md.). Approximately 5×10^5 viable cells were seeded in endothelial cell growth-supplemented basal medium (EGM-2-endothelial cell medium-2; Cambrex Bio Science Walkersville, Inc.) and maintained at 37° C. under a 5% carbon dioxide atmosphere per manufacturer's protocol. The culture medium was changed 24 hours after seeding and every 48 hours thereafter until confluence. Cells were then treated with trypsin, seeded in a 48-well culture dish, and incubated under the conditions previously described. Cells used in this Example were from the third passage.
(§2) After cells reached 70-80% confluence in the culture dish, they were allowed to become quiescent in unsupplemented, serum-free medium for 24 hours before treatment and then placed in medium containing 2% fetal bovine serum. Atorvastatin (LKT Laboratories Inc., St. Paul, Minn.) was dissolved in dimethylsulfoxide (Sigma-Aldrich, St. Louis, Mo.). Cells were treated for 24 hours with atorvastatin 1-50 μM alone or with atorvastatin plus mevalonate 250 μM (Sigma-Aldrich). Controls were cells cultured without atorvastatin or atorvastatinmevalonate. […] All experiments were performed in duplicate.
(§3) After treatment, culture-conditioned media were collected, divided into aliquots, and stored at −80° C. for no longer than 7 days until multiplex measurement of chemokines, cytokines, and angiogenic factors was performed.
(§4) The culture-conditioned media protein content of epithelial neutrophil-activating peptide-78 (ENA-78), interleukin-8, (IL-8), monocyte chemotactic protein-1 (MCP-1), interleukin-6 (IL-6), interleukin-10 (IL-10), fibroblast growth factor (FGF), and granulocyte colony-stimulating factor (G-CSF) were measured by means of flow-based immunofluorescence multiplex detection (Fluorokine MAP Human Cytokine Panel; R&D Systems Inc., Minneapolis, Minn.) with the Luminex 100 IS platform (Luminex Corp., Austin, Tex.). Concentrations for each sample were normalized against milligrams of total protein by using a standard bicinchoninic acid protein assay (Pierce Biotechnology, Inc., Rockford, Ill.). Samples were assayed in duplicate.
(§5) Standard curves of best fit for each analyte were generated by plotting the median fluorescence intensities of the analyte standards against their known concentrations by using Beadview multiplex data analysis software version 1 (Upstate, Charlottesville, Va.).
(§6) Differences in biomolecular concentrations were compared by treatment group by applying one-way analysis of variance and a post-hoc Tukey's test as appropriate. The Jonckheere Terpstra test was performed to assess the trend for differences in biomolecular concentrations across concentrations of atorvastatin. […]

IL-8 = IL-8 production by non-stimulated human umbilical vein endothelial cells, multiplex protein measurement; format: cell-based
Method: as §1, §2, §3, §4, §5
Differences in biomolecular concentrations were compared by treatment group by applying one-way analysis of variance and a post-hoc Tukey's test as appropriate. The Jonckheere Terpstra test was performed to assess the trend for differences in biomolecular concentrations across concentrations of atorvastatin. A p value below 0.05 was considered to indicate a statistically significant difference. Statistical analyses were performed with SPSS software, version 11.5 (SPSS Inc., Chicago, Ill.).

MCP-1 = MCP-1 production by non-stimulated human umbilical vein endothelial cells, multiplex protein measurement; format: cell-based; conditions: highest concentration of atorvastatin plus mevalonate 250 μM
Method: as §1, §2, §3, §4, §5, §6

IL-6 = IL-6 production by non-stimulated human umbilical vein endothelial cells, multiplex protein measurement; format: cell-based; conditions: atorvastatin plus mevalonate 250 μM
Method: as §1, with “passage. […]” for “passage.”
as §4, with “Concentrations for each sample were normalized against milligrams of total protein by using a standard bicinchoninic acid protein assay (Pierce Biotechnology, Inc., Rockford, Ill.). Samples were assayed in duplicate.” left out

[3] = highest concentration of atorvastatin

## geranylgeranyl pyrophosphate [GGPP]
ENA-78 [1]; FIG. 16
  effect of co-treatment on the effect of AT on IL-1beta-stimulated ENA-78 production: partially reversed

## interleukin-1beta [IL-1beta]
ENA-78 [1]; 4 hours
  stimulation of ENA-78 production by IL-1beta, times that of basal production: 29 times
ENA-78 [1]; 12 hours
  stimulation of ENA-78 production by IL-1beta, times that of basal production: 282 times
ENA-78 [1]; 24 hours
  stimulation of ENA-78 production by IL-1beta, times that of basal production: 892 times
ENA-78 [1]; 48 hours
  stimulation of ENA-78 production by IL-1beta, times that of basal production: 1322 times
ENA-78 [1]; IL-1beta 2 ng/ml, FIG. 14
  IL-1beta stimulated ENA-78 production relative to constitutive concentrations: ~60 fold
ENA-78 [1]; IL-1beta 2 ng/ml, no AT (constitutive 69±11 pg/mg), FIG. 14
  IL-1beta stimulated ENA-78 production: 4075 ± 360 pg/mg
ENA-78 [1]; IL-1beta alone, mevalonate experiment, FIG. 16
  IL-1beta-stimulated ENA-78 production: 3181 ± 590 pg/mg
CXCL5
  CXCL5 expression in HUVECs: highly induced

## mevalonate
ENA-78 [2]; atorvastatin plus mevalonate 250 μM, 24 hours
  effect of mevalonate cotreatment on atorvastatin effect on ENA-78 production: reversed
ENA-78 [2]; [3]
  reversal of atorvastatin effects on ENA-78 by mevalonate: potentially incomplete reversal
IL-8; [3]
  reversal of atorvastatin effects on IL-8 by mevalonate: potentially incomplete reversal
IL-8; mevalonate 250 μM, all atorvastatin groups
  effect of addition of mevalonate on atorvastatin effect on IL-8: reversed
MCP-1
  effect of mevalonate cotreatment on atorvastatin effect on MCP-1: reversed
IL-6
  effect of mevalonate on atorvastatin effect on IL-6: eliminated
ENA-78 [1]; FIG. 16
  effect of co-treatment on the effect of AT on IL-1beta-stimulated ENA-78 production: partially reversed
